Measurements as given in patent US20010021710A1, “NOVEL CIS-3,4-CHROMAN DERIVATIVES USEFUL IN THE PREVENTION OR TREATMENT OF ESTROGEN RELATED DISEASES OR SYNDROMES” (priority 1996, published 2001).

melting point	SMILES
164 to 167 °C	Oc1ccc2c(c1)OC[C@@H](c1ccc(F)cc1)[C@H]2c1ccc(OCCN2CCCC2)cc1 (racemic) [Example 7, (±)-cis-7-Hydroxy-3-(4-fluorophenyl)-4-(4-(2-pyrrolidinoethoxy)phenyl)chromane]
146 to 147 °C	Oc1ccc2c(c1)OC[C@@H](c1ccc(F)cc1)[C@H]2c1ccc(OCCN2CCCCC2)cc1 (racemic) [Example 8, (±)-cis-7-Hydroxy-3-(4-fluorophenyl)-4-(4-(2-piperidinoethoxy)phenyl)-chromane]
78 to 84 °C	Oc1ccc2c(c1)OC[C@@H](c1ccc(F)cc1)[C@H]2c1ccc(OCCCN2CCCCC2)cc1 (racemic) [Example 9, (±)-cis-7-Hydroxy-3-(4-fluorophenyl)-4-(4-(3-piperidinopropoxy)phenyl)chromane]
112 to 116 °C	Oc1ccc([C@@H]2COc3cc(O)ccc3[C@@H]2c2ccc(OCCN3CCCC3)cc2)cc1 (racemic) [Example 10, (±)-cis-7-Hydroxy-3-(4-hydroxyphenyl)-4-(4-(2-pyrrolidinoethoxy)phenyl)chromane]
161 to 165 °C	Cc1ccc([C@@H]2COc3cc(O)ccc3[C@@H]2c2ccc(OCCN3CCCC3)cc2)cc1 (racemic) [Example 12, (±)-cis-7-Hydroxy-3-(4-methylphenyl)-4-(4-(2-pyrrolidinoethoxy)phenyl)chromane]
146 to 147.5 °C	Cc1ccc([C@@H]2COc3cc(O)ccc3[C@@H]2c2ccc(OCCN3CCCCC3)cc2)cc1 (racemic) [Example 13, (±)-cis-7-Hydroxy-3-(4-methylphenyl)-4-(4-(2-piperidinoethoxy)phenyl)chromane]
85 to 90 °C	Cc1cccc([C@@H]2COc3cc(O)ccc3[C@@H]2c2ccc(OCCN3CCCC3)cc2)c1 (racemic) [Example 16, (±)-cis-7-Hydroxy-3-(3-methylphenyl)-4-(4-(2-pyrrolidinoethoxy)phenyl)chromane]
146 to 150 °C	Oc1ccc2c(c1)OC[C@@H](c1cccc(F)c1)[C@H]2c1ccc(OCCN2CCCC2)cc1 (racemic) [Example 17, (±)-cis-3-(3-Fluorophenyl)-7-hydroxy-4-(4-(2-pyrrolidinoethoxy)phenyl)chromane]
144 °C (dec.)	Oc1cccc([C@@H]2COc3cc(O)ccc3[C@@H]2c2ccc(OCCN3CCCCC3)cc2)c1 (racemic) [Example 19, (±)-cis-7-Hydroxy-3-(3-hydroxyphenyl)-4-(4-(2-piperidinoethoxy)phenyl)chromane]
87 to 89 °C	Oc1ccc2c(c1)OC[C@@H](c1cccc(C(F)(F)F)c1)[C@H]2c1ccc(OCCN2CCCC2)cc1 (racemic) [Example 21, (±)-cis-7-Hydroxy-4-(4-(2-pyrrolidinoethoxy)phenyl)-3-(3-(trifluoromethyl)phenyl)-chromane]
118 to 119 °C	Oc1ccc2c(c1)OC[C@@H](c1cccc(C(F)(F)F)c1)[C@H]2c1ccc(OCCN2CCCCC2)cc1 (racemic) [Example 22, (±)-cis-7-Hydroxy-4-(4-(2-piperidinoethoxy)phenyl)-3-(3-(trifluoromethyl)phenyl)-chromane]
190 °C (dec.)	Oc1ccc2c(c1)OC[C@@H](c1ccccc1F)[C@H]2c1ccc(OCCN2CCCC2)cc1 (racemic) [Example 23, (±)-cis-3-(2-Fluorophenyl)-7-hydroxy-4-(4-(2-pyrrolidinoethoxy)phenyl)chromane]
125 °C (dec.)	Oc1ccc2c(c1)OC[C@@H](c1c(F)c(F)c(F)c(F)c1F)[C@H]2c1ccc(OCCN2CCCC2)cc1 (racemic) [Example 24, (±)-cis-7-Hydroxy-3-(2,3,4,5,6-pentafluorophenyl)-4-(4-(2-pyrrolidinoethoxy)phenyl)chromane]
174 °C (dec.)	Oc1ccc2c(c1)OC[C@@H](c1c(F)c(F)c(F)c(F)c1F)[C@H]2c1ccc(OCCN2CCCCC2)cc1 (racemic) [Example 25, (±)-cis-7-Hydroxy-3-(2,3,4,5,6-pentafluorophenyl)-4-(4-(2-piperidinoethoxy)phenyl)chromane]
100 °C (dec.)	Oc1ccc2c(c1)OC[C@@H](c1ccc(C(F)(F)F)cc1)[C@H]2c1ccc(OCCN2CCCC2)cc1 [Example 1, (+)-cis-7-Hydroxy-4-(4-(2-pyrrolidinoethoxy)phenyl)-3-(4-(trifluoromethyl)phenyl)-chromane]
